Patent US9290459B1, “Substituted bicyclic dihydropyrimidinones and their use as inhibitors of neutrophil elastase activity” (Boehringer Ingelheim International GmbH, priority 2013, dated 2016)
≈ marks a conversion by molar mass, not a printed value.

Assays:
[1] = Metabolic stability with human liver microsomes; assay type: in vitro ADME; conditions: for half-life at 1 μM: human, microsomes, pH 7.6
[2] = Aqueous solubility; assay type: physicochemical; conditions: McIlvaine buffer pH 6.8, 2.5% DMSO, 24 h shaking; for solubility at 24 h: McIlvaine buffer pH 6.8 with 2.5% DMSO, pH 6.8, aqueous buffer, kinetic from dmso stock
Method: Assay for Determination of Aqueous Solubility […] After 24 h of shaking, the solutions or suspensions are filtered and analyzed by LC-UV. The amount dissolved in buffer is compared to the amount dissolved in the acetonitrile/water (1/1) solution.

[3] = molecular target: neutrophil elastase in human plasma (Homo sapiens (Human), UniProt P08246); assay: Neutrophil elastase inhibitory activity in human plasma (zymosan-stimulated blood); assay type: biochemical; conditions: neutrophil elastase enriched human plasma from zymosan-stimulated blood; read-out: EC50
Method: Assay for the Determination of Neutrophil Elastase Inhibitory Activity in Human Plasma
Citrated blood from human healthy donors is mixed with zymosan suspension and incubated at room temperature. This leads to the stimulation of neutrophils and the release of neutrophil elastase into the plasma. The stimulated blood is centrifuged to generate the neutrophil elastase enriched plasma.
Various concentrations of the neutrophil elastase inhibitor are incubated with plasma. […] A dose response curve is generated to calculate the EC50 of the inhibitor.

[4] = molecular target: Human neutrophil elastase (Homo sapiens (Human), UniProt P08246); assay: Human Neutrophil Elastase Assay; assay type: biochemical; conditions: human neutrophil elastase, substrate MeOSuc-Ala-Ala-Pro-Val-AMC 250 μM, pH 7.5; read-out: IC50
[5] = Drug transport across human Caco-2 cells; assay type: in vitro ADME; conditions: human; for Papp A→B at 10 µM / Papp B→A at 10 µM: Caco-2, pH 7.2, Caco-2 monolayers, pH 7.2, 37° C.; for Papp A→B at 10 µM: apical-to-basal, read-out: PEAB; for Papp B→A at 10 µM: basal-to-apical, read-out: PEBA; for efflux ratio at 10 μM: Caco-2, pH 7.2, PEBA/PEAB, Caco-2
Source text: Assay for Determination of Drug Transport Across Human Caco-2 Cells The assay provides information on the potential of a compound to pass the cell membrane, on the extent of oral absorption as well as on whether the compound is actively transported by uptake and/or efflux transporters. […] The compounds are assigned to permeability/absorption classes by comparison of the AB permeabilities with the AB permeabilities of reference compounds with known in vitro permeability and oral absorption in the human. Identical or similar permeabilities in both transport directions indicate passive permeation, vectorial permeability points to additional active transport mechanisms. […] Active transport is concentration-dependently saturable. Caco-2 cells (1-2*10^5 cells/cm^2 area) are seeded on filter inserts (Costar transwell polycarbonate or PET filters, 0.4 nm pore size) and cultured (DMEM) for 10 to 25 days. […] The transport solution (TL) is applied ici to the apical or basolateral donor side for measuring A-B or B-A permeability (3 filter replicates), respectively. The receiver side contains HTP-4 buffer supplemented with 2% BSA. […] Sampled receiver volumes are replaced with fresh receiver solution.

[6] = system: human hepatocytes; assay: Metabolic stability with human hepatocytes; assay type: in vitro ADME; conditions: human hepatocyte suspension, 1 μM test compound, scaled with well stirred model
Method: Assay for the Determination of Metabolic Stability with Human Hepatocytes The metabolic degradation of the test compound is assayed in a human hepatocyte suspension. Human hepatocytes (typically cryopreserved) are incubated in an appropriate buffer system (e.g. […] Samples are transferred into acetonitrile and pelleted by centrifugation (5 min) The supernatant is transferred to a new 96-deepwell plate, evaporated under nitrogen and resuspended. The decline of parent compound is analyzed by LC-MS/MS.

Chain of Human neutrophil elastase (P08246 30-247): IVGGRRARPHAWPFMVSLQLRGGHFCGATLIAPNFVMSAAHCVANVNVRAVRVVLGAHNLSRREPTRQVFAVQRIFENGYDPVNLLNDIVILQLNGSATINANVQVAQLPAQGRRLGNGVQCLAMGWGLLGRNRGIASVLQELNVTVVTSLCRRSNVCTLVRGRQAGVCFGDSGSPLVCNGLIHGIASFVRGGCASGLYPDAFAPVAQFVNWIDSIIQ
Chain of neutrophil elastase in human plasma (P08246 30-247): as above

SMILES | half-life at 1 μM [1] [min] | solubility at 24 h [2] [µg/mL] | EC50 [3] [nM] | IC50 [4] [nM] | Papp A→B at 10 µM [5] [×10⁻⁶ cm/s] | Papp B→A at 10 µM [5] [×10⁻⁶ cm/s] | efflux ratio at 10 μM [5] | CL (predicted human hepatic in vivo blood clearance) [6] [mL/min/kg] | t1/2 INVITRO ([1]; pooled human liver microsomes, 1 mg/ml protein, 1 μM test compound, 37° C., NADPH) [min] | Aqueous solubility [2] [mg/mL]
N#Cc1ccc(C2C3=C(CCC3=O)N(c3cccc(C(F)F)c3)C(=O)N2C(=O)NCCO)cc1 (stereo not drawn) [Example 52.3] | > 130 | 91 (≈ 195 µM) | < 1 | < 1 | – | – | – | – | – | –
CS(=O)(=O)c1cc(C#N)ccc1[C@@H]1C2=C(CCC2=O)N(c2cccc(C(F)(F)F)c2)C(=O)N1C(=O)NC1CC1 [Example 47.4] | > 130 | 19 (≈ 34 µM) | < 1 | < 1 | 7.74 | 85.5 | – | – | – | –
CN(CCO)C(=O)CN1C(=O)N(c2cccc(C(F)(F)F)c2)C2=C(C(=O)CC2)C1c1ccc(C#N)cc1S(C)(=O)=O (stereo not drawn) [Example 21, 2-(4-(4-Cyano-2-(methylsulfonyl)phenyl)-2,5-dioxo-1-(3-(trifluoromethyl)phenyl)-6,7-dihydro-1H-cyclopenta[d]pyrimidin-3(2H,4H,5H)-yl)-N-(2-hydroxyethyl)-N-methyl-acetamide] | > 130 | 87 (≈ 147 µM) | 1 | < 1 | – | – | – | – | – | –
CC(C)(O)CNC(=O)N1C(=O)N(c2cccc(C(F)F)c2)C2=C(C(=O)CC2)C1c1ccc(C#N)cc1 (stereo not drawn) [Example 52.5] | > 130 | 70 (≈ 142 µM) | 1 | < 1 | 4.45 | 62.7 | 14.1 | – | – | –
CS(=O)(=O)c1cc(C#N)ccc1[C@H]1NC(=O)N(c2cccc(C(F)F)c2)C2=C1C(=O)CC2 [Example 15.4A, (S)-4-(1-(3-(Difluoromethyl)phenyl)-2,5-dioxo-2,3,4,5,6,7-hexahydro-1H-cyclopenta[d]pyrimidin-4-yl)-3-(methylsulfonyl)benzonitrile] | > 130 | 69 (≈ 151 µM) | 2 | 2.9 | 3 | 46 | 15 | – | – | –
CS(=O)(=O)CCNC(=O)N1C(=O)N(c2cccc(C(F)(F)F)c2)C2=C(C(=O)CC2)C1c1ccc(C#N)cc1F (stereo not drawn) [Example 49.3] | > 130 | 32 (≈ 56.7 µM) | – | – | – | – | – | 0 | – | –
CN1C(=O)N(c2cccc(C(F)(F)F)c2)C2=C(C(=O)CC2)C1c1ccc(C#N)cn1 (stereo not drawn) [Example 26.1] | > 130 | 41 (≈ 99.4 µM) | 13 | 26.8 | 67.7 | 64.2 | 0.9 | – | – | –
CN1C(=O)N(c2cccc(C(F)F)c2)C2=C(C(=O)CC2)[C@H]1c1ccc(C#N)cc1 [Example 26A, (R)-4-(1-(3-(Difluoromethyl)phenyl)-3-methyl-2,5-dioxo-2,3,4,5,6,7-hexahydro-1H-cyclopenta[d]pyrimidin-4-yl)benzonitrile] | > 130 | 41 (≈ 104 µM) | 2 | 2.4 | 72 | 76 | 1.1 | – | – | –
CC(C)NC(=O)N1C(=O)N(c2cccc(C(F)(F)F)c2)C2=C(C(=O)CC2)[C@H]1c1ccc(C#N)cc1S(C)(=O)=O [Example 47.5] | > 130 | 16 (≈ 28.5 µM) | 1 | < 1 | 19.2 | 86.7 | – | – | – | –
N#Cc1ccc([C@@H]2C3=C(CCC3=O)N(c3cccc(C(F)(F)F)c3)C(=O)N2C(=O)N[C@H]2COC[C@@H]2O)cc1 [Example 45.5] | > 130 | 56 (≈ 106 µM) | – | – | – | – | – | 0 | – | –
CCS(=O)(=O)c1cc(C#N)ccc1[C@H]1NC(=O)N(c2cccc(C(F)(F)F)c2)C2=C1C(=O)CC2 [Example 14A, (S)-4-(2,5-Dioxo-1-(3-(trifluoromethyl)phenyl)-2,3,4,5,6,7-hexahydro-1H-cyclopenta[d]pyrimidin-4-yl)-3-(ethylsulfonyl)benzonitrile] | > 130 | 62 (≈ 127 µM) | 1 | 1.2 | 10.3 | 94.8 | 9.2 | – | – | –
N#CCN1C(=O)N(c2cccc(C(F)(F)F)c2)C2=C(C(=O)CC2)C1c1ccc(C#N)cc1 (stereo not drawn) [Example 22, 4-(3-(Cyanomethyl)-2,5-dioxo-1-(3-(trifluoromethyl)phenyl)-2,3,4,5,6,7-hexahydro-1H-cyclopenta[d]pyrimidin-4-yl)benzonitrile] | > 130 | 13 (≈ 29.8 µM) | 23 | 25.6 | 36.5 | 54.5 | 1.5 | – | – | –
CS(=O)(=O)c1cc(C#N)ccc1C1C2=C(CCC2=O)N(c2cccc(C(F)(F)F)c2)C(=O)N1CC(=O)O (stereo not drawn) [Example 19, 2-(4-(4-Cyano-2-(methylsulfonyl)phenyl)-2,5-dioxo-1-(3-(trifluoromethyl)phenyl)-6,7-dihydro-1H-cyclopenta[d]pyrimidin-3(2H,4H,5H)-yl)acetic acid] | > 130 | 89 (≈ 167 µM) | 2 | 1.3 | – | – | – | – | – | –
CCNC(=O)N1C(=O)N(c2ccnc(C(F)(F)F)c2)C2=C(C(=O)CC2)C1c1ccc(C#N)cc1 (racemic) [Example 54.2] | – | – | < 1 | 3.3 | – | – | – | – | >130 | 0.044
CN(C)C(=O)CN1C(=O)N(c2cccc(C(F)(F)F)c2)C2=C(C(=O)CC2)C1c1ccc(C#N)cc1 (stereo not drawn) [Example 6.2] | – | – | – | – | – | – | – | 6 | – | 0.077
CS(=O)(=O)c1cc(C#N)ccc1C1C2=C(CCC2=O)N(c2cccc(C(F)F)c2)C(=O)N1C(=O)NC1CC1 (stereo not drawn) [Example 53.3] | – | 34 (≈ 62.9 µM) | – | – | – | – | – | 0 | – | –
COC(=O)N1C(=O)N(c2cccc(C(F)(F)F)c2)C2=C(C(=O)CC2)[C@H]1c1ccc(C#N)cc1S(C)(=O)=O [Example 33, (S)-Methyl 4-(4-cyano-2-(methylsulfonyl)phenyl)-2,5-dioxo-1-(3-(trifluoromethyl)-phenyl)-4,5,6,7-tetrahydro-1H-cyclopenta[d]pyrimidine-3(2H)-carboxylate] | > 130 | 43 (≈ 80.6 µM) | < 1 | < 1 | 9.08 | 71.2 | 7.8 | – | – | –
CNC(=O)N1C(=O)N(c2cccc(C(F)F)c2)C2=C(C(=O)CC2)C1c1ccc(C#N)cc1 (stereo not drawn) [Example 52.1] | > 130 | 41 (≈ 93.9 µM) | < 1 | 1.1 | 57.1 | 58.3 | 1 | – | – | –
CNC(=O)N1C(=O)N(c2cccc(C(F)(F)F)c2)C2=C(C(=O)CC2)[C@H]1c1ccc(C#N)cc1F [Example 49A, (S)-4-(4-Cyano-2-fluorophenyl)-N-methyl-2,5-dioxo-1-(3-(trifluoromethyl)phenyl)-4,5,6,7-tetrahydro-1H-cyclopenta[d]pyrimidine-3(2H)-carboxamide] | > 130 | – | 4 | < 1 | 83.1 | 64.8 | 0.8 | – | – | –
N#Cc1ccc(C2C3=C(CCC3=O)N(c3cccc(C(F)(F)F)c3)C(=O)N2C(=O)N[C@H]2COC[C@H]2O)cc1 (stereo partly drawn) [Example 42.6] | – | 67 (≈ 127 µM) | – | – | – | – | – | 5 | – | –
